“And” between values parts separate entries of the source, which are not always exact repeats. Equal values may be shown once. Read-outs that look alike come from different tables or passages of the source.
Tests used:
acetyl Histone H3 = experiment: Western blotting, acetylation of histone H3 in HL60 cells; format: cell-based; conditions: Western blot, 48 a/b at 10 μM
acetyl tubulin = experiment: Western blotting, acetylated tubulin in HL60 cells; format: cell-based; conditions: Western blot, 48 a/b at 10 μM
drHDAC10 [1] = molecular target: T1, drHDAC10 (Danio rerio, UniProt F1QCV2); experiment: NDA assay drHDAC10; conditions: for inhibition at 0.1 µM / inhibition at 1 µM: read-out: NDA assay drHDAC10 % inhibition
T1 sequence (F1QCV2 2-675 limits assumed): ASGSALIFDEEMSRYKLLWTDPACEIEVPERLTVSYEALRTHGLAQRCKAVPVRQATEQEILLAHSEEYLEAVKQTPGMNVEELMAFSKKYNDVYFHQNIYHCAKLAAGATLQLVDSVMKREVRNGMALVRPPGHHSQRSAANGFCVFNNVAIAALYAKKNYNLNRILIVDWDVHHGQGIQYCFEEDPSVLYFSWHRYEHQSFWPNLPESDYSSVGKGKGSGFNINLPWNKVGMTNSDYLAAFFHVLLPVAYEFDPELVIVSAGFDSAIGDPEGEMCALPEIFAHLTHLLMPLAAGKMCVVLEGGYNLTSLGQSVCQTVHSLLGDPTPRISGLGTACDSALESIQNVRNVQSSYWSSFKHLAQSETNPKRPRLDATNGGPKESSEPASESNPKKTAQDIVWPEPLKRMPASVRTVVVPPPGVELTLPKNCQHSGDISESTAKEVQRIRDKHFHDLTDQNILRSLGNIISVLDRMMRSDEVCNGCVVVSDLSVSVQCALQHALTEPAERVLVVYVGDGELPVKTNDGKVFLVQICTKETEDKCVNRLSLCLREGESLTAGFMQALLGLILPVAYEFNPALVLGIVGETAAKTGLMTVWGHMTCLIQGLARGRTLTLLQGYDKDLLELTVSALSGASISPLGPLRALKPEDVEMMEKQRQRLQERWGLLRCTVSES

SK‐N‐BE(2)‐C cells [2] = experiment: LysoTracker assay, flow cytometry; format: cell-based; conditions: for increase of LysoTracker signal normalized against DMSO control: concentration differs per compound (Table 8)
SK‐N‐BE(2)‐C cells [3] = experiment: LysoTracker assay, fluorescence microscopy; format: cell-based; conditions: 24 h after treatment
hHDAC1 = hHDAC1 (Homo sapiens, UniProt Q13547); format: biochemical
Sequence of hHDAC1 (Q13547 whole entry): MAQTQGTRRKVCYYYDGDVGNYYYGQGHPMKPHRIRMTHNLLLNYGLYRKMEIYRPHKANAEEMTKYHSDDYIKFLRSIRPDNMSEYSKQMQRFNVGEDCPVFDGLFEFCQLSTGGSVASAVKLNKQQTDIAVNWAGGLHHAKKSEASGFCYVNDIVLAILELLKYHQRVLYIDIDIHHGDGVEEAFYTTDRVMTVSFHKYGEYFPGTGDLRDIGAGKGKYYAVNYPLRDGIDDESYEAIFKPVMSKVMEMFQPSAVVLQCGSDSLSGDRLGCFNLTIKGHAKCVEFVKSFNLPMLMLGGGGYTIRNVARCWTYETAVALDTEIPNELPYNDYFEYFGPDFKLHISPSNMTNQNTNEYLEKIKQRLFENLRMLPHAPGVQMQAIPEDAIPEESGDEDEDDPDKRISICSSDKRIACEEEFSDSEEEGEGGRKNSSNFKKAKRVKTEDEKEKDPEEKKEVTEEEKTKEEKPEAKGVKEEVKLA

hHDAC6 = molecular target: T2, hHDAC6 (Homo sapiens, UniProt Q9UBN7); experiment: hHDAC6 activity assay; format: biochemical
T2 sequence (Q9UBN7 1-1215): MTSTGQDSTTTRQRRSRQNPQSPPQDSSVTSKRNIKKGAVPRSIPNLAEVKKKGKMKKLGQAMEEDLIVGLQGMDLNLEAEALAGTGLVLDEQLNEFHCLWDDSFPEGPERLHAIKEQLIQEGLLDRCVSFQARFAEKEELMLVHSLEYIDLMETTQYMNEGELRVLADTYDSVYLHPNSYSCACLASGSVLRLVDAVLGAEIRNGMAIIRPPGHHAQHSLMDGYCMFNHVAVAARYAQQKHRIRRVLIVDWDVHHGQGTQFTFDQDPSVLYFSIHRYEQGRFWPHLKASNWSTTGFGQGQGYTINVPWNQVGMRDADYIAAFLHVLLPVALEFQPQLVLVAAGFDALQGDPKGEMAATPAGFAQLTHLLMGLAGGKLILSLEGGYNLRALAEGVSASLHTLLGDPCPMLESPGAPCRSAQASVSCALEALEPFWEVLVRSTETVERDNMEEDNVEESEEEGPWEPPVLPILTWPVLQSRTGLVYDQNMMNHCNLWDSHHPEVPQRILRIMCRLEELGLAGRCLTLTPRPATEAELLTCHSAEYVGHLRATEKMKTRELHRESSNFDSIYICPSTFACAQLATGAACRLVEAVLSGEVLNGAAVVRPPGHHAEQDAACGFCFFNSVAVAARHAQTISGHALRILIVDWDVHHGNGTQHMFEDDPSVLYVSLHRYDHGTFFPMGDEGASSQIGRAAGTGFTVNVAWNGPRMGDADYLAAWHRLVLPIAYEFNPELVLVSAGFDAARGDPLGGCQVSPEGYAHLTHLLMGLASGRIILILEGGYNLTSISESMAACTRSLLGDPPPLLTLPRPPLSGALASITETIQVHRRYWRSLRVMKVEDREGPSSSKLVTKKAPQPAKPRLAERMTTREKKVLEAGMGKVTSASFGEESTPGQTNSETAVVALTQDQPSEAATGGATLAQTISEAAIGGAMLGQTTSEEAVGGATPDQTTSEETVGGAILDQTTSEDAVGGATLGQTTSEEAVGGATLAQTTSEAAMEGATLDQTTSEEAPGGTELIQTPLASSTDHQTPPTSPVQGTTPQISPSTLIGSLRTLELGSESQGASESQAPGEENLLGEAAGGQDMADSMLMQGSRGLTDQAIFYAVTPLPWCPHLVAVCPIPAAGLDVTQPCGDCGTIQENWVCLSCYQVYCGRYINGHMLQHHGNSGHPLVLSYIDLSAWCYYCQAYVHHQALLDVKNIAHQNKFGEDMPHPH

hHDAC8 = molecular target: T3, hHDAC8 (Homo sapiens, UniProt Q9BY41); experiment: biochemical
T3 sequence (Q9BY41 1-377): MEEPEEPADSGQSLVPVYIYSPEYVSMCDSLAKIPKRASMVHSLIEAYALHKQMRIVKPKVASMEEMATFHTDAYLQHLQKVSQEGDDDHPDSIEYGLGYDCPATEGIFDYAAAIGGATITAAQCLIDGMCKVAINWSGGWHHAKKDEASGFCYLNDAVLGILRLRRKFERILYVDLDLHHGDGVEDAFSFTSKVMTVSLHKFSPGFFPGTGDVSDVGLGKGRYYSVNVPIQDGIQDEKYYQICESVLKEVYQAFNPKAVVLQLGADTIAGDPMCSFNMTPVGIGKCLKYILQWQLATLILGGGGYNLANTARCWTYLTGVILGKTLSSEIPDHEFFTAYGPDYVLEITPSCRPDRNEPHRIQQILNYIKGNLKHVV

HDAC10 [4] = molecular target: T4, HDAC10 (Homo sapiens, UniProt Q969S8); experiment: BRET assay for HDAC10; format: cell-based
T4 sequence (Q969S8 1-669): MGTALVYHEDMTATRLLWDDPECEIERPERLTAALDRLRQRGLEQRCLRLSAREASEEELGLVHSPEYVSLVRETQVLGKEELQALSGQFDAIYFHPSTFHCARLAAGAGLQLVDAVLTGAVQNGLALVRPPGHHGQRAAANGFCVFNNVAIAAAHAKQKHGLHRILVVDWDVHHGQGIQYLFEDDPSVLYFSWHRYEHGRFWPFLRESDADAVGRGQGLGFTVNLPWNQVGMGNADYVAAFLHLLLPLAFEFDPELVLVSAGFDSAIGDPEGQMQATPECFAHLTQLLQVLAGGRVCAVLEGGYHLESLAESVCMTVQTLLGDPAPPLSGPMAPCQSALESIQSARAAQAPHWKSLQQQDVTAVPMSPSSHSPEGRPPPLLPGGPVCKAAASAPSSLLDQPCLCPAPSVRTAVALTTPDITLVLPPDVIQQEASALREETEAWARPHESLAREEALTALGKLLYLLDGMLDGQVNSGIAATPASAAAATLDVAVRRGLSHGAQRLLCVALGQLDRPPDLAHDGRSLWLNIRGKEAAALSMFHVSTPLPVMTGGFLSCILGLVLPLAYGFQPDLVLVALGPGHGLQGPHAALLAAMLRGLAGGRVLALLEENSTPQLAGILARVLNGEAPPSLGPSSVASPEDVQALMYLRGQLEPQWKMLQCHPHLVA

HDAC10 [5] = molecular target: T4, HDAC10; experiment: HDAC10 binding assay
HDAC10 [6] = molecular target: T4, HDAC10; conditions: read-out: BRET assay (EC50); in‐cellulo; ref 32 (Géraldy et al.); cited from earlier work
HDAC10 [7] = molecular target: T4, HDAC10; conditions: TR‐FRET and BRET displacement assays; cited from earlier work
drHDAC10 [8] = molecular target: T1, drHDAC10; experiment: Proof of substrate conversion by HPLC; format: biochemical, Danio rerio (zebrafish); conditions: drHDAC10 0.027 mg/mL, up to 45 min
SK‐N‐BE(2)‐C cells [9] = conditions: 7.5 μM, flow cytometry; ref 16b; cited from earlier work
[10] = @ 1 (concentration unit not given)
[11] = @ 10 (concentration unit not given)

In the case of `O=C(CCCCCCC(=O)Nc1ccccc1)NO` [vorinostat], the “effect on acetyl Histone H3 (class I, representative HDAC1)” value (from here on “effect on acetyl Histone H3”) (acetyl Histone H3) is reported as “robust hyperacetylation”, the “effect on acetyl tubulin (HDAC6)” value (acetyl tubulin) is reported as “robust hyperacetylation” and the IC50 (drHDAC10 [1]) is reported as 2000 ± 240 nM. The inhibition at 0.1 µM (drHDAC10 [1]) was < 10% and the inhibition at 1 µM (drHDAC10 [1]) was 43%.
`CCCCOc1ccc(CC(=O)NO)cc1` [bufexamac] gave an inhibition at 0.1 µM (drHDAC10 [1]) of 26% and an inhibition at 1 µM (drHDAC10 [1]) of 64%.
For `CN(C)Cc1c(C(=O)NCCOc2ccc(C(=O)NO)cc2)oc2ccccc12` [abexinostat], the “increase of LysoTracker signal normalized against DMSO control” value (SK‐N‐BE(2)‐C cells [2]) was “up to 3 fold”, the “accumulation of lysosomes, LysoTracker signal by fluorescence microscopy” value (“accumulation of lysosomes” below) (SK‐N‐BE(2)‐C cells [3]) was “very strong response” and the IC50 (drHDAC10 [1]) was 134 ± 26 nM. The inhibition at 0.1 µM (drHDAC10 [1]) was 45% and the inhibition at 1 µM (drHDAC10 [1]) was > 95%.
In the case of `O=C(NO)C1CCN(CCNCc2ccc(Br)cc2)CC1` [48 b, 1‐(2‐((4‐Bromobenzyl)amino)ethyl)‐N‐hydroxypiperidine‐4‐carboxamide], the “hHDAC1 (ZMAL) % inhibition” value (hHDAC1; [10]) is reported as < 10%, the “hHDAC1 (ZMAL) % inhibition” value (hHDAC1; [11]) is reported as 11% and the “hHDAC6 (ZMAL) % inhibition” value (hHDAC6; [10]) is reported as < 10%. The “hHDAC6 (ZMAL) % inhibition” value (hHDAC6; [11]) was 11%, the IC50 (hHDAC8; inhibition of HDAC8) was ~1000 nM and the EC50 (HDAC10 [4]) was 10 nM. For the same compound, the “effect on acetyl Histone H3” value (acetyl Histone H3) was “no increase”, the “effect on acetyl tubulin (HDAC6)” value (acetyl tubulin) was “no increase” and the “LysoTracker effect (relative signal intensity as compared to control)” value (SK‐N‐BE(2)‐C cells [2]; 10 μM) was 1.07±0.15. The “LysoTracker effect (relative signal intensity as compared to control)” value (SK‐N‐BE(2)‐C cells [2]; 20.0 μM) was 1.04±0.05, the “increase of LysoTracker signal normalized against DMSO control” value (SK‐N‐BE(2)‐C cells [2]) was “did not show an increase in signal” and the IC50 (HDAC10 [5]) was 2 nM.
For `O=C(NO)C1CCN(CCNCc2ccccc2)CC1` [48 a, 1‐(2‐(Benzylamino)ethyl)‐N‐hydroxypiperidine‐4‐carboxamide], the “hHDAC1 (ZMAL) % inhibition” value (hHDAC1; [10]) was < 10%, the “hHDAC1 (ZMAL) % inhibition” value (hHDAC1; [11]) was 20% and the “hHDAC6 (ZMAL) % inhibition” value (hHDAC6; [10]) was <10 % @ 10 <10 % @ 1. The “hHDAC6 (ZMAL) % inhibition” value (hHDAC6; [11]) was <10 % @ 10 <10 % @ 1, the IC50 (hHDAC8; hHDAC8 (FDL) IC50) was 1970 ± 309 nM and the IC50 (hHDAC8; inhibition of HDAC8) was ~1000 nM. The EC50 (HDAC10 [4]) was 26 nM, the “effect on acetyl Histone H3” value (acetyl Histone H3) was “no increase” and the “effect on acetyl tubulin (HDAC6)” value (acetyl tubulin) was “no increase”. For the same compound, the IC50 (HDAC10 [5]) was 5 nM.
For `Cn1cc(CNCC2CCN(c3ncc(C(=O)NO)cn3)CC2)c2ccccc21` [quisinostat], the “increase of LysoTracker signal normalized against DMSO control” value (SK‐N‐BE(2)‐C cells [2]) is given as “up to 3 fold”, the “accumulation of lysosomes” value (SK‐N‐BE(2)‐C cells [3]) is given as “very strong response” and the EC50 (HDAC10 [6]) is given as 40 nM. For the same compound, the IC50 (drHDAC10 [1]) was 50 nM, the inhibition at 0.1 µM (drHDAC10 [1]) was 60% and the inhibition at 1 µM (drHDAC10 [1]) was 91%.
For `CN1CCc2c(c3ccccc3n2Cc2ccc(C(=O)NO)cc2)C1` [tubastatin A], the “HDAC10 binding in displacement assays” value (HDAC10 [7]) is listed as “bound strongly”, the IC50 (drHDAC10 [1]) is listed as 30 ± 3 nM and the inhibition at 0.1 µM (drHDAC10 [1]) is listed as 82%. For the same compound, the inhibition at 1 µM (drHDAC10 [1]) was > 95%.
For `CC(=O)NCCCCNCCC(=O)Nc1ccc2c(C)cc(=O)oc2c1` [Ac‐spermidine‐AMC, 3‐((4‐Acetamidobutyl)amino)‐N‐(4‐methyl‐2‐oxo‐2H‐chromen‐7‐yl)propanamide], the “maximal conversion by drHDAC10 (HPLC, fluorescamine derivatization)” value (drHDAC10 [8]) was “about 50%”.
In the case of `Nc1ccccc1NC(=O)c1ccc(CNc2nccc(-c3cccnc3)n2)cc1` [mocetinostat], the inhibition at 0.1 µM (drHDAC10 [1]) is reported as < 10% and the inhibition at 1 µM (drHDAC10 [1]) is reported as < 10%.
For `O=C(CCCCCCC(=O)Nc1ccc([C@H]2O[C@@H](CSc3nc(-c4ccccc4)c(-c4ccccc4)o3)C[C@@H](c3ccc(CO)cc3)O2)cc1)NO` [tubacin], the “accumulation of lysosomes” value (SK‐N‐BE(2)‐C cells [3]) is listed as “No influence” and the “LysoTracker effect (relative signal intensity as compared to control)” value (SK‐N‐BE(2)‐C cells [9]) is listed as 1.1 and 1.1±0.07.
For `Cc1[nH]c2ccccc2c1CCNCc1ccc(/C=C/C(=O)NO)cc1` [panobinostat], the “increase of LysoTracker signal normalized against DMSO control” value (SK‐N‐BE(2)‐C cells [2]) was “up to 3 fold”, the “accumulation of lysosomes” value (SK‐N‐BE(2)‐C cells [3]) was “very strong response” and the inhibition at 0.1 µM (drHDAC10 [1]) was 65%. For the same compound, the inhibition at 1 µM (drHDAC10 [1]) was > 95%.

From publication PMC9308754 (Chembiochem, 2022)
